Assay results published in patent publication US6204293A, “Inhibitors of protein isoprenyl transferases” (University of Pittsburgh, priority 1998, dated 2001).
Counter-ions that a name gives are not always drawn.

Each molecule was assayed against T1, Rat brain protein farnesyltransferase (Rattus norvegicus, UniProt Q02293+Q04631) (assay: % inhibition of farnesylation, scintillation proximity assay with biotin-K Ras B fragment). Details: Table 1; 1 × 10^-5 M.
T1 construct: Rat brain protein farnesyltransferase activity is measured; from tissue; host or cells: rat brain
Type: biochemical
Method in brief: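 Scintillation proximity read-out of farnesylation, using a biotinylated K Ras B fragment (0.1 mM final) in place of biotin-lamin. Enzyme purified from rat brain; results given as % inhibition.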

T1 sequence (Q02293 whole entry, the tested form may be a part, one chain of several): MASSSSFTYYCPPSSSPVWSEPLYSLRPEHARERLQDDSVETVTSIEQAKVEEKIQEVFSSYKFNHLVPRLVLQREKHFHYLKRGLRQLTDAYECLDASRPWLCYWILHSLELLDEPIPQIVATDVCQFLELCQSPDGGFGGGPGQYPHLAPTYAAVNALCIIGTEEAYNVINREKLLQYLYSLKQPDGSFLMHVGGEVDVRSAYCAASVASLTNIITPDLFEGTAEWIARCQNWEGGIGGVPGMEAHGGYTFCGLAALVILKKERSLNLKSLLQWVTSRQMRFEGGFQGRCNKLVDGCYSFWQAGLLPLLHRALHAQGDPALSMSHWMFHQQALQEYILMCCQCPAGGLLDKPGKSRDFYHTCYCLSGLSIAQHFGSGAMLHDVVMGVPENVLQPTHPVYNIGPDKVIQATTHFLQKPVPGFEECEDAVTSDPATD

Going from `CSCC[C@H](NC(=O)c1ccc(CNc2cc(C(=O)O)cc(C(=O)O)c2)cc1-c1ccccc1)C(=O)O` [Example 710] to `CSCC[C@H](NC(=O)c1ccc(CNc2cccc(CC(=O)O)c2)cc1-c1ccccc1)C(=O)O` [Example 684], the “% inhibition at 1 × 10^-5 M” value rises from 45% to 48%.

Compared with `CSCC[C@H](NC(=O)c1ccc(CNc2cccc(Oc3ccccc3)c2)cc1-c1ccccc1)C(=O)O` [Example 686], `CSCC[C@H](NC(=O)c1ccc(CNc2ccc(Oc3ccccc3)cc2)cc1-c1ccccc1)C(=O)O` [Example 701] is higher in “% inhibition at 1 × 10^-5 M” value: 48% for the first, 64% for the second.

Compared with `CSCC[C@H](NC(=O)c1ccc(CNc2ccc3c(c2)CCC3)cc1-c1ccccc1)C(=O)O` [Example 705], `CSCC[C@H](NC(=O)c1ccc(CNc2ccc(I)cc2)cc1-c1ccccc1)C(=O)O` [Example 688] is lower in “% inhibition at 1 × 10^-5 M” value: 72% for the first, 71% for the second.

First: COc1cc2c(cc1OC)C(CNCc1ccc(C(=O)N[C@@H](CCSC)C(=O)O)c(-c3ccccc3)c1)=CC(C1CCCCC1)C2 (stereo partly shown) [Example 659]
Second: CSCC[C@H](NC(=O)c1ccc(CNc2ccccc2N(C)C)cc1-c1ccccc1)C(=O)O [Example 672]
The “% inhibition at 1 × 10^-5 M” value of the first is higher: 55% for the first, 48% for the second.

First: CSCC[C@H](NC(=O)c1ccc(CNCCCCc2ccccc2)cc1-c1ccccc1)C(=O)O [Example 718]
Second: CSCC[C@H](NC(=O)c1ccc(CNc2ccc3ncccc3c2)cc1-c1ccccc1)C(=O)O [Example 708]
The “% inhibition at 1 × 10^-5 M” value of the first is lower: 40% for the first, 76% for the second.

`CCN(Cc1ccc(C(=O)N[C@@H](CCSC)C(=O)O)c(-c2ccccc2)c1)Cc1cc([N+](=O)[O-])ccc1O` [Example 711] was tested, and the “% inhibition at 1 × 10^-5 M” value was 46%.

Same assay, conditions: Table 2; 1 × 10^-6 M

Compared with `CSCC[C@H](NC(=O)c1ccc(CN(C)CCc2ccccc2)cc1-c1ccccc1C)C(=O)O` [Example 516], `CSCC[C@H](NC(=O)c1ccc(/C=C/CCc2ccccc2)cc1-c1ccccc1C)C(=O)O` [Example 472] is higher in “% inhibition at 1 × 10^-6 M” value: 95% for the first, 97% for the second.

First: CSCC[C@H](NC(=O)c1ccc(CN(C(C)C)C2(CC3CCCCC3)CCCC2)cc1-c1ccccc1C)C(=O)O [Example 344]
Second: CSCC[C@H](NC(=O)c1ccc(CN(C2CC2)C2(CC3CCCCC3)CCC2)cc1-c1ccccc1C)C(=O)O [Example 330]
The “% inhibition at 1 × 10^-6 M” value of the first is lower: 95% for the first, 98% for the second.

Going from `CCOC(=O)c1ccc(NCc2ccc(C(=O)N[C@@H](CCSC)C(=O)O)c(-c3ccccc3)c2)cc1` [Example 646] to `CSCC[C@H](NC(=O)c1ccc(CNc2ccc(CCO)cc2)cc1-c1ccccc1)C(=O)O` [Example 694], the “% inhibition at 1 × 10^-6 M” value falls from 58% to 45%.

Compared with `CSCC[C@H](NC(=O)c1ccc(CN2C(=O)OC[C@@H]2CC2CCCCC2)cc1-c1ccccc1C)C(=O)O` [Example 349], `CSCC[C@H](NC(=O)c1ccc(CN(C2CC2)C2(Cc3ccccc3)CCC2)cc1-c1ccccc1C)C(=O)O` [Example 329] is lower in “% inhibition at 1 × 10^-6 M” value: 99% for the first, 98% for the second.

First: CSCC[C@H](NC(=O)c1ccc(CNCC(O)c2cccc(O)c2)cc1-c1ccccc1)C(=O)O (stereo partly shown) [Example 661]
Second: CSCC[C@H](NC(=O)c1ccc(CNCCN(C(C)C)C(C)C)cc1-c1ccccc1)C(=O)O [Example 636]
The “% inhibition at 1 × 10^-6 M” value of the first is lower: 45% for the first, 72% for the second.

Going from `CSCC[C@H](NC(=O)c1ccc(NCC(CO)Cc2ccccc2)cc1-c1ccccc1C)C(=O)O` (stereo partly shown) [Example 476] to `CSCC[C@H](NC(=O)c1ccc(CN(CCCc2ccccc2)c2ccccc2)cc1-c1ccccc1C)C(=O)O` [Example 508], the “% inhibition at 1 × 10^-6 M” value rises from 91% to 95%.

Going from `CSCC[C@H](NC(=O)c1ccc(NC(=O)OCCCl)cc1-c1ccccc1)C(=O)O` [Example 979] to `CSCC[C@H](NC(=O)c1ccc(C=CCc2ccc3ccccc3c2)cc1-c1ccccc1C)C(=O)O` [Example 496], the “% inhibition at 1 × 10^-6 M” value rises from 26% to 93%.

Same assay, conditions: Table 3; 1 × 10^-7 M

Compared with `CSCC[C@H](NC(=O)c1ccc(CN2CCCC(OCC3CCCCC3)C2)cc1-c1ccccc1C)C(=O)O` (stereo partly shown) [Example 990], `CCSCC(CC1CCCCC1)N(Cc1ccc(C(=O)N[C@@H](CCSC)C(=O)O)c(-c2ccccc2C)c1)CC(C)C` (stereo partly shown) [Example 945] is lower in “% inhibition at 1 × 10^-7 M” value: 84% for the first, 80% for the second.

Same assay, conditions: Table 4; 1 × 10^-8 M

`CSCC[C@H](NC(=O)c1ccc(CCc2ccc(Oc3ccc(Cl)cc3)cc2)cc1-c1ccccc1C)C(=O)O` [Example 860] and `CSCC[C@H](NC(=O)c1ccc(CN(Cc2ccccc2)c2cccc(C(C)=O)c2)cc1-c1ccccc1C)C(=O)O` [Example 845] are the same in “% inhibition at 1 × 10^-8 M” value: 85% for the first, 85% for the second.

First: CSCC[C@H](NC(=O)c1ccc(CN(Cc2cncs2)C2CCSCC2)cc1-c1ccccc1C)C(=O)O [Example 881]
Second: CSCC[C@H](NC(=O)c1ccc(CN(Cc2ccccc2)c2ccc(SC)cc2)cc1-c1ccccc1C)C(=O)[O-].[Li+] [Example 852]
The “% inhibition at 1 × 10^-8 M” value of the first is lower: 69% for the first, 79% for the second.

First: CSCC[C@H](NC(=O)c1ccc(CN(Cc2ccccc2)c2cccc(SC)c2)cc1-c1ccccc1C)C(=O)[O-].[Li+] [Example 851]
Second: CSCC[C@H](NC(=O)c1ccc(CN(Cc2ccccc2)c2cccc([N+](=O)[O-])c2)cc1-c1ccccc1C)C(=O)[O-].[Li+] [Example 842]
The “% inhibition at 1 × 10^-8 M” value of the first is lower: 82% for the first, 88% for the second.

Same assay, conditions: Table 6; * footnote 0.1 μM (title: 0.1 mM)

In the case of `CCCCN(CCN1CCCCC1)Cc1ccc(C(=O)N[C@@H](CCSC)C(=O)O)c(-c2ccccc2C)c1` [Example 1196], the “% inhibition at 0.1 μM (*)” value is reported as 87%.

Same assay, conditions: Table 6; ** footnote 0.01 μM (title: 0.01 mM)

In the case of `CCSCC(CC1CCCCC1)NCc1cc(-c2ccccc2C)c(C(=O)N[C@@H](CCSC)C(=O)O)cc1F` (stereo partly shown) [Example 1134], the “% inhibition at 0.01 μM (**)” value is reported as 95%.

Same assay, conditions: read-out: % inhibition at 0.1 μM (*); Table 6; * footnote 0.1 μM (title: 0.1 mM)

First: CSCC[C@H](NC(=O)c1ccc(COCc2cccc(CO)c2)cc1-c1ccccc1C)C(=O)O [Example 1044, N-[4-(3-hydroxymethylbenzyloxymethyl)-2-(2-methylphenyl)benzoyl]methionine,lithium salt]
Second: CSCC[C@H](NC(=O)c1ccc(COC(c2ccccc2)C2CCOCC2)cc1-c1ccccc1C)C(=O)O (stereo partly shown) [Example 1283, N-[4-(1-(4-tetrahydropyranyl)benzyloxymethyl-2-(2-methylphenyl)benzoyl]methioninelithium salt]
The inhibition at 0.1 µM of the first is higher: 76% for the first, 74% for the second.

Same assay, conditions: read-out: % inhibition at 1 × 10^-6 M; Table 2; 1 × 10^-6 M

Compared with `CSCC[C@H](NC(=O)c1cc(Cc2ccccc2)c(COCc2ccco2)cc1-c1ccccc1C)C(=O)O` [Example 924], `COc1ccc(CCOCc2ccc(C(=O)N[C@@H](CCSC)C(=O)O)c(-c3ccccc3C)c2)cc1` [Example 937, N-[4-(2-(4-methoxyphenyl)ethoxymethyl)-2-(2-methylphenylbenzoyl]methioninelithium salt] is higher in inhibition at 1 µM: 77% for the first, 95% for the second.

With `CSCC[C@H](NC(=O)c1ccc(COCC(CC2CCCCC2)CC2CCCCC2)cc1-c1ccccc1C)C(=O)O` [Example 889, lithium salt] the inhibition at 1 µM was 95%.

Same assay, conditions: read-out: % inhibition at 1 × 10^-7 M

`CSCC[C@H](NC(=O)c1ccc(COCc2ccc(-c3ccc(SC)cc3)o2)cc1-c1ccccc1C)C(=O)O` [Example 447, N-[4-(5-(4-methylthiophenyl)furan-2-ylmethoxymethyl)-2-(2-methylphenyl)benzoyl]methionine lithium salt] and `CSCC[C@H](NC(=O)c1ccc(COCc2cc3ccccc3o2)cc1-c1ccccc1C)C(=O)O` [Example 533, N-[4-(benzofuran-2-ylmethoxymethyl)-2-(2-methylphenyl)benzoyl]methionine lithium salt] are the same in inhibition at 0.1 µM: 91% for the first, 91% for the second.

First: CSCC[C@H](NC(=O)c1ccc(COCc2cccc(C)c2)cc1-c1ccccc1C)C(=O)O [Example 578, N-[4-(3-methylbenzyloxymethyl)-2-(2-methylphenyl)benzoyl]methionine lithium salt]
Second: CSCC[C@H](NC(=O)c1ccc(COCCc2cccc3ccccc23)cc1-c1ccccc1C)C(=O)O [Example 592, N-[4-(2-naphth-1-ylethoxymethyl)-2-(2-methylphenyl)benzoyl]methionine lithium salt]
The inhibition at 0.1 µM of the first is lower: 90% for the first, 93% for the second.

Same assay, conditions: read-out: % inhibition at 1 × 10^-7 M; Table 3; 1 × 10^-7 M

Compared with `CSCC[C@H](NC(=O)c1ccc(CSc2nc3cc(C)ccc3[nH]2)cc1-c1ccccc1C)C(=O)O` [Example 733], `COc1ccc(CSCc2ccc(C(=O)N[C@@H](CCSC)C(=O)O)c(-c3ccccc3C)c2)cc1` [Example 558, N-[4-(4-methoxybenzyl)thiomethyl-2-(2-methylphenyl)benzoyl]methionine, lithium salt] is higher in inhibition at 0.1 µM: 60% for the first, 87% for the second.

Going from `CSCC[C@H](NC(=O)c1ccc(CSc2ncnc3[nH]cnc23)cc1-c1ccccc1C)C(=O)O` [Example 747] to `CSCC[C@H](NC(=O)c1ccc(CSc2ncnc3[nH]ncc23)cc1-c1ccccc1C)C(=O)O` [Example 746], the inhibition at 0.1 µM rises from 68% to 84%.

For `CSCC[C@H](NC(=O)c1ccc(COCc2ccccc2)cc1-c1ccccc1C)C(=O)NS(=O)(=O)c1ccccc1` [Example 580, Benzenesulfonyl N-2-[4-(benzyloxymethyl)-2-(2-methylphenyl)benzoyl]amino-4-methylthiobutanamide], the inhibition at 0.1 µM was 90%.

Same assay, conditions: read-out: % inhibition at 1 × 10^-8 M

Compared with `CSCC[C@H](NC(=O)c1ccc(COCc2cnc(-c3cccc(F)c3)s2)cc1-c1ccccc1C)C(=O)O` [Example 898, N-[4-(2-(3-fluorophenyl)thiazol-5-ylmethoxymethyl)-2-(2-methylphenyl)benzoyl]methionine lithium salt], `CSCC[C@H](NC(=O)c1ccc(COCc2cnc(-c3ccc(Cl)cc3)s2)cc1-c1ccccc1C)C(=O)O` [Example 901, N-[4-(2-(4-chlorophenyl)thiazol-5-ylmethoxymethyl)-2-(2-methylphenyl)benzoyl]methionine lithium salt] is higher in inhibition at 0.01 µM: 82% for the first, 84% for the second.

`CSCC[C@H](NC(=O)c1ccc(COCc2cnc(-c3ccccc3Cl)s2)cc1-c1ccccc1C)C(=O)O` [Example 897, N-[4-(2-(2-chlorophenyl)thiazol-5-ylmethoxymethyl)-2-(2-methylphenyl)benzoyl]methionine lithium salt] gave an inhibition at 0.01 µM of 76%.
